{"source": "patent US20060223756A1", "about": "“Endothelial cell specifically binding peptides” (priority 2002, published 2006)", "key": {"HeLa cells": {"system": "HeLa cells", "assay": "In vitro transduction analysis (β-galactosidase, X-gal stain) on HeLa", "type": "cell-based, human", "experimental": "(§1) S8 cells are A549 cells stably transfected with adenoviral E1 and E2a genes under separate dexamethasone-inducible promoters (Gorziglia et al., 1996). S8 cells are cultured in IMEM (Biofluids, Rockville, Md.) with 10% heat inactivated fetal bovine serum (HIFBS). For virus production, the cells are cultured with 0.3 uM dexamethasone to induce the expression of E1 and E2a genes. H460 cells are a human non-small cell lung carcinoma (ATCC, Manassas, Va.) and are cultured in RPMI Medium 1640 (Life Technologies, Gaithersburg, Md.) with 10% HIFBS. PC3 cells are a human prostate carcinoma cell line (ATCC) and are cultured in RPMI Medium 1640 with 10% HIFBS. HeLa cells are a human cervical carcinoma cell line (ATCC) and are cultured in DMEM with 10% HIFBS. Primary human endothelial cells, in particular Human Umbilical Vein Endothelial Cells (HUVECs) are obtained from the Clonetics Corporation (Walkerville, Md.: AC-7018). The cells are cultured in the recommended medium.\n(§2) The transduction efficiency of Av3nBgPD1 is surveyed using primary human umbilical vein endothelial cells (HUVEC) and on three human carcinoma cell lines including HeLa, PC3, and H460 cells. […] The percentage of transduction is determined by light microscopy by counting the number of positively transduced blue cells per field as described previously (Stevenson, et. al, 1997)."}, "PC3 cells": {"system": "PC3 cells", "assay": "In vitro transduction analysis (β-galactosidase, X-gal stain) on PC3", "type": "cell-based, human", "experimental": "as §1, §2"}, "[1]": {"system": "primary human umbilical vein endothelial cells (HUVEC)", "assay": "In vitro transduction analysis (β-galactosidase, X-gal stain) on HUVEC", "type": "cell-based", "experimental": "as §1, §2"}}}
{"sequence": "CPDLHHHMC (Artificial sequence derived from human and animal adenovirus peptide sequences for binding to endothelial cell surface molecules) [PD1]", "values": [{"measurement": "transduction compared with Av3nBg control, in words", "setting": "HeLa cells", "result": "offered no advantage"}, {"measurement": "transduction compared with Av3nBg control, in words", "setting": "PC3 cells", "result": "offered no advantage"}, {"measurement": "transduction compared with Av3nBg control, in words", "setting": "[1]", "result": "enhances transduction"}]}
